In ChEMBL document CHEMBL4627376, “Substituted benzyloxytricyclic compounds as retinoic acid-related orphan receptor gamma t (RORγt) agonists” (Bioorg Med Chem Lett, 2020):

Legend:
[1] = Stability in human liver microsomes assessed as parent compound remaining at 0.5 uM in presence of NADPH by MS/MS analysis; assay type: ADME, Microsome; settings: read-out: Stability
[2] = Stability in mouse liver microsomes assessed as parent compound remaining at 0.5 uM in presence of NADPH by MS/MS analysis; assay type: ADME, Microsome; settings: read-out: Stability
[3] = Stability in rat liver microsomes assessed as parent compound remaining at 0.5 uM in presence of NADPH by MS/MS analysis; assay type: ADME, Microsome; settings: read-out: Stability
[4] = Volume of distribution at steady state in C57BL6 mouse at 2 mg/kg, iv qd administered as bolus dose after 24 hrs by LC-MS/MS analysis; assay type: ADME, organism-based; settings: in vivo, read-out: Vdss
[5] = Tmax in C57BL6 mouse at 30 mg/kg, po qd via gavage after 24 hrs by LC-MS/MS analysis; assay type: ADME, organism-based; settings: in vivo
[6] = Permeability of compound at pH 7.4; assay type: ADME; settings: not told, read-out: permeability
[7] = Clearance in C57BL6 mouse at 2 mg/kg, iv qd administered as bolus dose after 24 hrs by LC-MS/MS analysis; assay type: ADME, organism-based; settings: in vivo
[8] = Drug level in mouse MC38 cells allografted C57BL6 mouse blood at 10 mg/kg, po BID and measured after 24 hrs; assay type: ADME, organism-based; settings: whole blood, read-out: Drug uptake
[9] = Cmax in C57BL6 mouse at 30 mg/kg, po qd via gavage after 24 hrs by LC-MS/MS analysis; assay type: ADME, organism-based; set-up: dose 30 mg/kg, route oral; settings: in vivo
[10] = AUC in C57BL6 mouse at 30 mg/kg, po qd via gavage after 24 hrs by LC-MS/MS analysis; assay type: ADME, organism-based; set-up: time < 24 hr, dose 30 mg/kg, route oral; settings: in vivo
[11] = molecular target: T1, Nuclear receptor ROR-gamma (Mus musculus, UniProt P51450); assay: Agonist activity at RORgammat in mouse whole blood assessed as induction of IL-17A expression; assay type: tissue-based
T1 sequence (P51450 whole entry): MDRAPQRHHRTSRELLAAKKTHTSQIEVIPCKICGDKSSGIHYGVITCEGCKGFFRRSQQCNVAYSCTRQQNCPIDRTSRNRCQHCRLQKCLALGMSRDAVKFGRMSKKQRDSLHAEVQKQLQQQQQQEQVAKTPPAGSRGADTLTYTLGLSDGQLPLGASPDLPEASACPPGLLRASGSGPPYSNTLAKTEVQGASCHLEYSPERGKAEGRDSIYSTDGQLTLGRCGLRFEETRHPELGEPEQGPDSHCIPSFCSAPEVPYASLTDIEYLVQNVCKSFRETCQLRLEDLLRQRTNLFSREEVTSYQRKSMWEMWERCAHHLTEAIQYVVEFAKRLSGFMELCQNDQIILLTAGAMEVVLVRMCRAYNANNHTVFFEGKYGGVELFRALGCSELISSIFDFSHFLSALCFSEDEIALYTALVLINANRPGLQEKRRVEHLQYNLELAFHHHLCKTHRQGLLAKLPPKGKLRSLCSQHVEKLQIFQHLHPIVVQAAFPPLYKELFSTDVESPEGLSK

[12] = AUC in C57BL6 mouse at 2 mg/kg, iv qd administered as bolus dose after 24 hrs by LC-MS/MS analysis; assay type: ADME, organism-based; set-up: time < 24 hr, dose 2 mg/kg, route intravenous; settings: in vivo
[13] = Drug metabolism in mouse hepatocytes assessed as UGT-mediated metabolism by measuring half life; assay type: ADME, cell-based
[14] = Half life in mouse hepatocytes; assay type: ADME, cell-based, Hepatocyte

## CS(=O)(=O)N[C@H]1CC[C@H](C(=O)N2CC[C@@]3(S(=O)(=O)c4ccc(F)cc4)c4ccc(OCc5c(F)cccc5C(F)(F)F)cc4CC[C@@H]23)CC1
[1]
  remaining at 0.5 µM: 2%
[2]
  remaining at 0.5 µM: 41%
[3]
  remaining at 0.5 µM: 30%

## O=C(N1CC[C@@]2(S(=O)(=O)c3ccc(F)cc3)c3ccc(OCc4c(F)cccc4C(F)(F)F)cc3CC[C@@H]12)C1(O)CCS(=O)(=O)CC1
[1]
  remaining at 0.5 µM: 1%
[2]
  remaining at 0.5 µM: 51%
[3]
  remaining at 0.5 µM: 4%

## NC(=O)[C@H]1CC[C@H](C(=O)N2CC[C@@]3(S(=O)(=O)c4ccc(F)cc4)c4ccc(OCc5c(F)cccc5C(F)(F)F)cc4CC[C@@H]23)CC1
[1]
  remaining at 0.5 µM: 17%
[3]
  remaining at 0.5 µM: 39%

## C[C@]1(C(=O)N2CC[C@@]3(S(=O)(=O)c4ccc(F)cc4)c4ccc(OCc5c(F)cccc5C(F)(F)F)cc4CC[C@@H]23)CC[C@H](C(=O)O)CC1
[4]
  Vd: 1.1 L/kg
[5]
  Tmax: 0.5 h
[6]
  Papp: 40.6 ×10⁻⁶ cm/s
[7]
  clearance: 6.7 mL/min/kg
[8]
  concentration at 24 h: 0.1 µM
[9]
  Cmax: 61 µM
[1]
  remaining at 0.5 µM: 80%
[10]
  AUC at 24 h: 275 µM·h
[2]
  remaining at 0.5 µM: 100%
[11]
  EC50: 380 nM
[3]
  remaining at 0.5 µM: 48%
[12]
  AUC at 24 h: 6.5 µM·h

## NC(=O)N1CCC(C(=O)N2CC[C@@]3(S(=O)(=O)c4ccc(F)cc4)c4ccc(OCc5c(F)cccc5C(F)(F)F)cc4CC[C@@H]23)CC1
[1]
  remaining at 0.5 µM: 3%
[2]
  remaining at 0.5 µM: 57%
[3]
  remaining at 0.5 µM: 33%

## O=C([C@H]1CC[C@H](c2nnn[nH]2)CC1)N1CC[C@@]2(S(=O)(=O)c3ccc(F)cc3)c3ccc(OCc4c(F)cccc4C(F)(F)F)cc3CC[C@@H]12
[1]
  remaining at 0.5 µM: 55%
[2]
  remaining at 0.5 µM: 82%
[3]
  remaining at 0.5 µM: 67%

## O=C(O)[C@H]1CC[C@H](C(=O)N2CC[C@@]3(S(=O)(=O)c4ccc(F)cc4)c4ccc(OCc5c(F)cccc5C(F)(F)F)cc4CC[C@@H]23)CC1
[4]
  Vd: 1.8 L/kg
[5]
  Tmax: 1 h
[6]
  Papp: 10.1 ×10⁻⁶ cm/s
[7]
  clearance: 9.1 mL/min/kg
[13]
  half-life: > 2 h
[9]
  Cmax: 38 µM
[1]
  remaining at 0.5 µM: 97%
[10]
  AUC at 24 h: 103 µM·h
[2]
  remaining at 0.5 µM: 100%
[14]
  half-life: > 2 h
[3]
  remaining at 0.5 µM: 65%
[12]
  AUC at 24 h: 5.4 µM·h

## O=C(CN1CCS(=O)(=O)CC1)N1CC[C@@]2(S(=O)(=O)c3ccc(F)cc3)c3ccc(OCc4c(F)cccc4C(F)(F)F)cc3CC[C@@H]12
[1]
  remaining at 0.5 µM: 1%
[2]
  remaining at 0.5 µM: 14%
[3]
  remaining at 0.5 µM: 14%

## O=C(C1CCS(=O)(=O)CC1)N1CC[C@@]2(S(=O)(=O)c3ccc(F)cc3)c3ccc(OCc4c(F)cccc4C(F)(F)F)cc3CC[C@@H]12
[1]
  remaining at 0.5 µM: 1%
[2]
  remaining at 0.5 µM: 52%
[3]
  remaining at 0.5 µM: 18%
